# Measurements published in BindingDB's records for doi:10.1016/j.bmcl.2004.02.040 (Ewha Womans University, 2004).
# pIC50: −log10 of the molar value.
# Target: cGMP-specific 3',5'-cyclic phosphodiesterase PDE5 (Oryctolagus cuniculus)
# Assay: Inhibition of phosphodiesterase 5 of rabbit platelets
smiles,measurement,value
"CCCOc1ccc(S(=O)(=O)N2CCC(CCP(=O)(O)OCC)CC2)cc1-c1nc2c(CCC)nn(C)c2c(=O)[nH]1 [(2-{1-[3-(1-Methyl-7-oxo-3-propyl-6,7-dihydro-1H-pyrazolo[4,3-d]pyrimidin-5-yl)-4-propoxy-benzenesulfonyl]-piperidin-4-yl}-ethyl)-phosphonic acid monoethyl ester]",pIC50,9.54
